From ChEMBL document CHEMBL3217678 (Medchemcomm, 2011)
Active and inactive are the calls of the source. No cut-off for these calls is given here.

How the values were obtained:
[1] = Half life in 100 fold molar excess of deuterated water in DMSO at 37 degC by [1H]-NMR analysis; assay type: physicochemical
26S proteasome = test: Inhibition of human 20S proteasome using Suc-LLVY-AMC as substrate preincubated for 30 mins followed by substrate addition measured after 90 mins by fluorescence assay; assay type: protein-complex assay
[2] = biological target: T1, 26S proteasome (Homo sapiens) (UniProt Q99460+P49721+P20618+P28074+P28062+P28065+P28072+O00487+P25786+P25787+P25788+P25789+P28066+P60900+O14818+Q8TAA3+P40306+A5LHX3+P49720+P28070+Q99436+Q16186+P35998+P62191+P43686+P62333+P17980+P62195+Q13200+O43242+O00232+O00231+Q15008+P51665+Q9UNM6+P55036+P48556+P60896); test: Inhibition of human 20S proteasome using Suc-LLVY-AMC as substrate assessed as decrease in enzyme velocity; assay type: protein-complex assay
[3] = biological target: T1, 26S proteasome (Homo sapiens); test: Inhibition of 20S proteasome in human HeLa cells expressing GFP-tagged ubiquitin G76V mutant at 23 uM after 16 hrs by fluorescence assay; assay type: cell-based
[4] = biological target: T1, 26S proteasome (Homo sapiens); settings: HeLa, 26 nM
Description: Inhibition of 20S proteasome in human HeLa cells expressing GFP-tagged ubiquitin G76V mutant at 26 nM after 16 hrs by fluorescence assay

| Structure (SMILES) | half-life [1] [h] | IC50 (26S proteasome) [µM] | inhibition [2] | inhibition [3] | inhibition [4] |
| --- | --- | --- | --- | --- | --- |
| COc1cccc(-c2nsc(=O)o2)c1 | 20 | – | – | – | – |
| CC(C)C[C@H](NC(=O)[C@H](Cc1ccccc1)NC(=O)c1cnccn1)c1nsc(=O)o1 | 156 | 108 | Dose-dependent effect | Active | – |
| CC(C)C[C@@H](NC(=O)[C@H](Cc1ccccc1)NC(=O)c1cnccn1)c1nsc(=O)o1 | – | 225 | Dose-dependent effect | inactive | – |
| CC(C)C[C@H](NC(=O)[C@H](Cc1ccccc1)NC(=O)c1cnccn1)B(O)O [BORTEZOMIB] | – | – | – | – | Active |
